Experimental data reported in patent US20180099931A1 (AbbVie S.à.r.l., priority 2016, published 2018).
Read-outs that look alike come from different tables or passages of the source.

Target: T1, F508delCFTR (Homo sapiens, UniProt P13569, DEL508-508)
T1 construct: expressed in transfected cells; host or cells: CFBE41o- human lung-derived epithelial cells (CFBE4lo-F508delCFTR-HRP), doxycycline-inducible
Test: Cell Surface Expression-Horse Radish Peroxidase (CSE-HRP) Assay;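 for Maximum % activity (with co-corrector): co-corrector and positive control are both the same reference corrector at 2 µM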;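 for Maximum % activity (without co-corrector): percent of the 2 µM on-plate positive control corrector response above DMSO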
Type: cell-based
Details: for Emax / Maximum % activity (with co-corrector): maximum at any tested concentration, normalized to on-plate positive control; for Emax: read-out: Maximum % activity (without co-corrector)

[1] = test compound without co-corrector
[2] = test compound without co-corrector, read-out: EC50 (without co-corrector)
[3] = with co-corrector (2 μM of 3-[(2R,4R)-4-({[1-(2,2-difluoro-1,3-benzodioxol-5-yl)cyclopropyl]carbonyl}amino)-7-methoxy-3,4-dihydro-2H-chromen-2-yl]benzoic acid)
[4] = with co-corrector (2 μM of 3-[(2R,4R)-4-({[1-(2,2-difluoro-1,3-benzodioxol-5-yl)cyclopropyl]carbonyl}amino)-7-methoxy-3,4-dihydro-2H-chromen-2-yl]benzoic acid), read-out: EC50 (with co-corrector)
[5] = CSE-HRP, test compound without co-corrector, read-out: EC50 (without co-corrector)
[6] = CSE-HRP, with co-corrector (2 μM of 3-[(2R,4R)-4-({[1-(2,2-difluoro-1,3-benzodioxol-5-yl)cyclopropyl]carbonyl}amino)-7-methoxy-3,4-dihydro-2H-chromen-2-yl]benzoic acid), read-out: EC50 (with co-corrector)
[7] = CSE-HRP, with co-corrector (2 μM)

T1 sequence (P13569 with tags, fused parts or gaps DEL508-508): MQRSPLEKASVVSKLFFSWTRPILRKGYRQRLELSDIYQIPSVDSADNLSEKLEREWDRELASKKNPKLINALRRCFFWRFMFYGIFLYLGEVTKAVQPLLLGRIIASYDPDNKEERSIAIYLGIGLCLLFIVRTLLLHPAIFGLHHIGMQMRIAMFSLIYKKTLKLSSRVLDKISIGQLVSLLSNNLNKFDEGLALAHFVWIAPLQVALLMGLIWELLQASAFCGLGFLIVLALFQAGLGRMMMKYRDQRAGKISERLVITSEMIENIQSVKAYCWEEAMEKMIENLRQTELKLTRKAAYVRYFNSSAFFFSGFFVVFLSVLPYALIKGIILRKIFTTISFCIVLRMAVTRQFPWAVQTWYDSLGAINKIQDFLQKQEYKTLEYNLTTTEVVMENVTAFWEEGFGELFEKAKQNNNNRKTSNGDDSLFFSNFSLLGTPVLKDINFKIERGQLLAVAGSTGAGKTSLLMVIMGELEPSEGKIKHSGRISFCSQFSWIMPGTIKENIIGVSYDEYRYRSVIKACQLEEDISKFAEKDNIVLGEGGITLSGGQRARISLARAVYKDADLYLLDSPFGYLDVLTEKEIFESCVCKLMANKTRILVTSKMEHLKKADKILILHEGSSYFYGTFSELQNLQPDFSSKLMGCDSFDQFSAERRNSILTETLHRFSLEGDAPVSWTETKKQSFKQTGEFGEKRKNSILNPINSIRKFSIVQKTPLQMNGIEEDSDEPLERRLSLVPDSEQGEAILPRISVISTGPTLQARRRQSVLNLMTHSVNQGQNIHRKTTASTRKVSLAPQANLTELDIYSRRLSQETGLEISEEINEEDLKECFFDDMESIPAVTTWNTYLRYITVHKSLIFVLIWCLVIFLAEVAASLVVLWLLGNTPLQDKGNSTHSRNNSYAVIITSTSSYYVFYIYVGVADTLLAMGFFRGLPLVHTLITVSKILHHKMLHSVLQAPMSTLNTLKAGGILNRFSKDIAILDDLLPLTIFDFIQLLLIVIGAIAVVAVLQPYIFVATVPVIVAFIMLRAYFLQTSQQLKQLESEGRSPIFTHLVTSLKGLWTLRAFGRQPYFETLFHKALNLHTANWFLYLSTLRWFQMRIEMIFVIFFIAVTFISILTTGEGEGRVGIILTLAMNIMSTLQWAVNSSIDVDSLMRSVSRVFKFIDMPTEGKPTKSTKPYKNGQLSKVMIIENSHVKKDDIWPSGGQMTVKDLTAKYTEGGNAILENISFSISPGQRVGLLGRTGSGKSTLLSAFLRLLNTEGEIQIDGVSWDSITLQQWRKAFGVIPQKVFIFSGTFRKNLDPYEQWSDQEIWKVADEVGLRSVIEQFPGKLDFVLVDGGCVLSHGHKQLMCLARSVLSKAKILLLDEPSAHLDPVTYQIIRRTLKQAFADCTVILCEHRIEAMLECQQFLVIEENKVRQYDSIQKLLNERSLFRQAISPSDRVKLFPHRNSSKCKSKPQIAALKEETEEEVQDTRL

SMILES | Emax [1] [%] | EC50 [2] [nM] | Maximum % activity (with co-corrector) [3] | EC50 [4] [nM] | EC50 [5] [nM] | EC50 [6] [nM] | Maximum % activity (with co-corrector) [7] | Emax (CSE-HRP, without co-corrector) [%] | Maximum % activity (with co-corrector) (with co-corrector (2 μM)) | Emax (without co-corrector) [%]
CC(C)OC(=O)N1[C@H](C(=O)O)[C@@H](C(C)(C)C)[C@H](NCC2CCCN(c3ccc(C(F)(F)F)cc3)C2)[C@@H]1c1ccccc1 (stereo partly drawn) [Example I-268] | – | – | – | – | 1000 to 10000 | 1000 to 10000 | +++ (≥350) | < 100 | – | –
COc1ccc(C(F)(F)F)cc1CN[C@H]1[C@H](C(C)(C)C)[C@@H](C(=O)O)N(C(=O)C2CCCCC2)[C@H]1c1cccnc1N(C)C [Example I-53] | – | 1000 to 10000 | – | 1000 to 10000 | – | – | – | – | +++ (≥350) | 100 to 200
COc1ccc(C(C)(C)C)cc1CN[C@H]1[C@H](C(C)(C)C)[C@@H](C(=O)O)N(C(=O)c2cc3occc3n2C)[C@H]1c1ccccc1 [Example I-102] | – | 1000 to 10000 | – | 1000 to 10000 | – | – | – | – | +++ (≥350) | 100 to 200
COc1ncc(C(F)(F)F)cc1CN[C@H]1[C@H](C(C)(C)OC)[C@@H](C(=O)O)N(C(=O)C2CCCCC2)[C@H]1c1ccccc1 [Example 22, (2S,3S,4S,5S)-1-(cyclohexanecarbonyl)-3-(2-methoxypropan-2-yl)-4-({[2-methoxy-5-(trifluoromethyl)pyridin-3-yl]methyl}amino)-5-phenylpyrrolidine-2-carboxylic acid] | – | < 1000 | – | < 1000 | – | – | – | – | +++ (≥350) | 100 to 200

Second part, the compound after the results:

Emax [1] [%] | EC50 [2] [nM] | Maximum % activity (with co-corrector) [3] | EC50 [4] [nM] | EC50 [5] [nM] | EC50 [6] [nM] | Maximum % activity (with co-corrector) [7] | Emax (CSE-HRP, without co-corrector) [%] | Maximum % activity (with co-corrector) (with co-corrector (2 μM)) | Emax (without co-corrector) [%] | SMILES
< 100 | 1000 to 10000 | ++ (≥150 and <350) | 1000 to 10000 | – | – | – | – | – | – | CC(C)(C)[C@@H]1[C@@H](Nc2ccc(C(F)(F)F)cn2)[C@@H](c2ccccc2)N(C(=O)C2CCCCC2)[C@H]1C(=O)O (racemic) [III-5]
> 200 | 1000 to 10000 | +++ (≥350) | < 1000 | – | – | – | – | – | – | COc1ccc(C(C)(C)C)cc1CN[C@H]1[C@H](C(C)(C)C)[C@@H](C(=O)O)N(C(=O)C(Oc2ccccc2C)C(C)C)[C@H]1c1ccccc1 (stereo partly drawn) [II-415]
< 100 | 1000 to 10000 | ++ (≥150 and <350) | 1000 to 10000 | – | – | – | – | – | – | CC(C)(C)[C@@H]1[C@@H](NCc2cccnc2N2CCOCC2)[C@@H](c2ccccc2)N(C(=O)C2CCCCC2)[C@H]1C(=O)O (racemic) [III-28]
100 to 200 | 1000 to 10000 | +++ (≥350) | 1000 to 10000 | – | – | – | – | – | – | COC1(CN[C@H]2[C@H](C(C)(C)C)[C@@H](C(=O)O)N(C(=O)C3CCCCC3)[C@H]2c2ccccc2)CCCCC1 [II-394]
< 100 | 1000 to 10000 | ++ (≥150 and <350) | 1000 to 10000 | – | – | – | – | – | – | COc1ncc(C(F)(F)F)cc1CN[C@H]1[C@H](C(C)(C)C)[C@@H](C(=O)O)N(C(=O)[C@@H]2CCCO2)[C@H]1c1cccnc1C1CC1 [II-586]
– | – | – | – | 1000 to 10000 | 1000 to 10000 | +++ (≥350) | > 200 | – | – | COc1ccc(C(C)(C)C)cc1CN[C@H]1[C@H](C(C)(C)C)[C@@H](C(=O)O)N(C(=O)c2c(C)nn(-c3ccccc3)c2C)[C@H]1c1ccccc1 [II-229]
< 100 | < 1000 | ++ (≥150 and <350) | – | – | – | – | – | – | – | COc1nc(C(C)(C)C)ccc1CN[C@H]1[C@H](C(C)(C)C)[C@@H](C(=O)O)N(C(=O)C2Cc3ccccc3O2)[C@H]1c1ccccc1 (single isomer, unassigned) [II-430]
> 200 | < 1000 | – | < 1000 | – | – | – | – | +++ (≥350) | – | COc1ccc(C23CC(C2)C3)cc1CN[C@H]1[C@H](C(C)(C)C)[C@@H](C(=O)O)N(C(=O)OC(C)C)[C@H]1c1ccccc1C(C)C [III-220]
> 200 | < 1000 | +++ (≥350) | < 1000 | – | – | – | – | – | – | CCCCCOC(=O)N1[C@H](C(=O)O)[C@@H](C(C)(C)C)[C@H](NCc2cc(C(C)(C)C)ccc2OC)[C@@H]1c1ccccc1 [II-385]
